According to PubChem BioAssay AID312 (DTP/NCI, 2004):
Where “and” joins values, the source holds several entries; their conditions need not be identical. Identical values can stand only once. Inconclusive results and toxic doses are left out.

Tested on: BDF1 mice, C1498 leukemia ip, median survival T/C
Assay: NCI In Vivo Anticancer Drug Screen. Data for tumor model C1498 Myeloid Leukemia (intraperitoneal) in B6D2F1 (BDF1) mice
Settings: endpoint: median survival time, higher = longer survival
Protocol: The antitumor activity of compounds was measured in mice bearing transplantable tumors. Survival or tumor size were measured and the results are expressed as the measurement made in the treated group (T) divided by the measurement made in the vehicle treated control group (C). The tumor model used in this assay is C1498 Myeloid Leukemia (intraperitoneal) in B6D2F1 (BDF1) mice

[1] = dose: 5.0 mg/kg/injection, schedule: Q01DX010 (ip), vehicle: saline
[2] = dose: 10.0 mg/kg/injection, schedule: Q01DX010 (ip), vehicle: saline
[3] = dose: 20.0 mg/kg/injection, schedule: Q01DX010 (ip), vehicle: saline
[4] = dose: 40.0 mg/kg/injection, schedule: Q01DX010 (ip), vehicle: saline
[5] = dose: 1.25 mg/kg/injection, schedule: Q01DX010 (ip), vehicle: other
[6] = dose: 2.5 mg/kg/injection, schedule: Q01DX010 (ip), vehicle: other
[7] = dose: 8.0 mg/kg/injection, schedule: Q01DX010 (ip), vehicle: saline
[8] = dose: 16.0 mg/kg/injection, schedule: Q01DX010 (ip), vehicle: saline

COc1cc(-c2ccc(Nc3ccccc3C(=O)O)c(OC)c2)ccc1N
T/C [1]: 100 % of control | T/C [2]: 95 % of control and 100 % of control | T/C [3]: 100 % of control and 105 % of control | T/C [4]: 118 % of control

COc1cccc2c1C(=O)c1c(O)c3c(c(O)c1C2=O)C[C@@](O)(C(C)=O)C[C@@H]3OC1CC(N)C(O)C(C)O1 (some centres undefined)
T/C [5]: 107 % of control and 115 % of control | T/C [6]: 92 % of control and 111 % of control | T/C (dose: 156.0 micrograms/kg/injection, schedule: Q01DX010 (ip), vehicle: saline): 118 % of control | T/C (dose: 313.0 micrograms/kg/injection, schedule: Q01DX010 (ip), vehicle: saline): 118 % of control

CCCSc1ncnc2nc[nH]c12
T/C (dose: 31.3 mg/kg/injection, schedule: Q01DX010 (ip), vehicle: saline): 100 % of control and 104 % of control | T/C (dose: 62.5 mg/kg/injection, schedule: Q01DX010 (ip), vehicle: saline): 100 % of control and 109 % of control | T/C (dose: 125.0 mg/kg/injection, schedule: Q01DX010 (ip), vehicle: saline): 104 % of control and 90 % of control

Nc1nc(SCc2ccccc2)c2[nH]cnc2n1
T/C [7]: 100 % of control | T/C [8]: 105 % of control | T/C (dose: 32.0 mg/kg/injection, schedule: Q01DX010 (ip), vehicle: saline): 105 % of control | T/C (dose: 64.0 mg/kg/injection, schedule: Q01DX010 (ip), vehicle: saline): 90 % of control

COC(=O)C[C@](O)(CCCC(C)(C)O)C(=O)O[C@@H]1C(OC)=C[C@]23CCCN2CCc2cc4c(cc2[C@H]13)OCO4
T/C (dose: 1.5 mg/kg/injection, schedule: Q01DX009 (ip), vehicle: acid diluted with saline): 96 % of control | T/C (dose: 2.0 mg/kg/injection, schedule: Q01DX009 (ip), vehicle: acid diluted with saline): 91 % of control

Clc1ncnc2nc[nH]c12
T/C (dose: 7.5 mg/kg/injection, schedule: Q01DX010 (ip), vehicle: saline): 95 % of control and 100 % of control | T/C (dose: 15.0 mg/kg/injection, schedule: Q01DX010 (ip), vehicle: saline): 95 % of control and 90 % of control | T/C (dose: 30.0 mg/kg/injection, schedule: Q01DX010 (ip), vehicle: saline): 104 % of control and 90 % of control | T/C (dose: 60.0 mg/kg/injection, schedule: Q01DX010 (ip), vehicle: saline): 95 % of control

CN(C)/N=N/c1nc[nH]c1C(N)=O
T/C (dose: 25.0 mg/kg/injection, schedule: Q01DX010 (ip), vehicle: saline): 108 % of control | T/C (dose: 50.0 mg/kg/injection, schedule: Q01DX010 (ip), vehicle: saline): 112 % of control | T/C (dose: 100.0 mg/kg/injection, schedule: Q01DX010 (ip), vehicle: saline): 158 % of control | T/C (dose: 200.0 mg/kg/injection, schedule: Q01DX010 (ip), vehicle: saline): 158 % of control and 159 % of control | T/C (dose: 400.0 mg/kg/injection, schedule: Q01DX010 (ip), vehicle: saline): 118 % of control

C[C@@H]1C[C@@H]([C@H](O)CC2CC(=O)NC(=O)C2)C(=O)[C@@H](C)C1
T/C [1]: 104 % of control and 109 % of control | T/C [2]: 114 % of control and 122 % of control | T/C [3]: 113 % of control and 123 % of control | T/C [4]: 113 % of control

O=C(Nc1ccc(NC2=NCCN2)cc1)c1ccc(C(=O)Nc2ccc(NC3=NCCN3)cc2)cc1
T/C (dose: 2.0 mg/kg/injection, schedule: Q01DX010 (ip), vehicle: saline): 113 % of control and 123 % of control | T/C [7]: 172 % of control and 190 % of control | T/C [8]: 109 % of control and 114 % of control

Nc1nc(=S)c2[nH]cnc2[nH]1
T/C [5]: 104 % of control | T/C [6]: 123 % of control | T/C (dose: 5.0 mg/kg/injection, schedule: Q01DX010 (ip), vehicle: other): 104 % of control | T/C (dose: 10.0 mg/kg/injection, schedule: Q01DX010 (ip), vehicle: other): 109 % of control | T/C (dose: 27.0 mg/kg/injection, schedule: Q01DX001 (ip), vehicle: alkali diluted with saline): 97 % of control | T/C (dose: 40.0 mg/kg/injection, schedule: Q01DX001 (ip), vehicle: alkali diluted with saline): 101 % of control | T/C (dose: 60.0 mg/kg/injection, schedule: Q01DX001 (ip), vehicle: alkali diluted with saline): 112 % of control | T/C (dose: 90.0 mg/kg/injection, schedule: Q01DX001 (ip), vehicle: alkali diluted with saline): 150 % of control

CN(C)c1nc(N(C)C)nc(N(C)C)n1
T/C (dose: 18.8 mg/kg/injection, schedule: Q01DX010 (ip), vehicle: saline): 100 % of control and 109 % of control | T/C (dose: 37.5 mg/kg/injection, schedule: Q01DX010 (ip), vehicle: saline): 104 % of control and 118 % of control | T/C (dose: 75.0 mg/kg/injection, schedule: Q01DX010 (ip), vehicle: saline): 100 % of control and 109 % of control | T/C (dose: 150.0 mg/kg/injection, schedule: Q01DX010 (ip), vehicle: saline): 109 % of control and 118 % of control

O=P1(N(CCCl)CCCl)NCCCO1 (centres undefined)
T/C (dose: 200.0 mg/kg/injection, schedule: Q01DX001 (ip), vehicle: saline): 162 % of control and 207 % of control | T/C (dose: 300.0 mg/kg/injection, schedule: Q01DX001 (ip), vehicle: saline): 171 % of control and 241 % of control

O=C(Nc1ccc(C2=NCCN2)cc1)c1ccc(C(=O)Nc2ccc(C3=NCCN3)cc2)c([N+](=O)[O-])c1
T/C (dose: 6.0 mg/kg/injection, schedule: Q01DX010 (ip), vehicle: saline): 96 % of control and 119 % of control | T/C [7]: 100 % of control | T/C (dose: 18.0 mg/kg/injection, schedule: Q01DX010 (ip), vehicle: saline): 103 % of control

S=P(N1CCOCC1)(N1CC1)N1CC1
T/C (dose: 2.5 mg/kg/injection, schedule: Q01DX010 (ip), vehicle: saline): 95 % of control and 104 % of control | T/C [1]: 95 % of control and 100 % of control | T/C [2]: 100 % of control and 104 % of control | T/C [3]: 104 % of control
